From BigSolDB 2.1

CCCSc1nc(N[C@@H]2C[C@H]2c2ccc(F)c(F)c2)c2nnn([C@@H]3C[C@H](OCCO)[C@@H](O)[C@H]3O)c2n1
solubility (mole fraction)
Conditions	273.15 K	278.15 K	283.15 K	288.15 K	293.15 K	298.15 K	303.15 K	308.15 K	313.15 K
in ethyl acetate	0.00246	0.00306	0.00399	0.00496	0.00602	0.00717	0.00899	0.0112	0.0139
in isopropanol	0.00074	0.00102	0.00138	0.00213	0.00304	0.00415	0.00571	0.00785	0.0112
in isopropyl acetate	0.0011	0.00136	0.00171	0.00205	0.00243	0.00295	0.00355	0.0045	0.00545
in n-butanol	0.00106	0.00155	0.0021	0.00278	0.00371	0.00476	0.00633	0.00826	0.0114
in n-propanol	0.00212	0.00288	0.00387	0.00513	0.00683	0.00958	0.0128	0.0165	0.0222
in sec-butanol	0.000855	0.00116	0.00181	0.00249	0.00359	0.00494	0.00693	0.00992	0.0137
